Source: ChEMBL document CHEMBL5634129, “Design, synthesis, and structure-activity relationships of a novel class of quinazoline derivatives as coronavirus inhibitors” (Eur J Med Chem, 2023)
Activity calls are given as the source filed them. The calls are words filed in the database; no cut-off is given here.

Tests used:
[1] = Cytotoxicity in human NCI-H460 cells infected with HCoV-OC43 treated for 72 hrs by CPE inhibition assay; assay type: toxicity, cell-based; conditions: read-out: TC50
[2] = Selectivity index, ratio of TC50 for human NCI-H460 cells infected with HCoV-OC43 to EC50 for HCoV-OC43 infected in human NCI-H460 cells; assay type: toxicity, cell-based; conditions: read-out: Selectivity Index
[3] = test system: Human coronavirus OC43; assay: Antiviral activity against HCoV-OC43 infected in human H460 cells assessed as decrease in viral nucleocapsid protein level at 2 uM by Hoechst 33342 staining based analysis; assay type: functional, organism-based; conditions: NCI-H460
[4] = test system: Human coronavirus OC43; assay: Antiviral activity against HCoV-OC43 infected in human H460 cells assessed as viral inhibition at early stage at 500 nM measured upto 12 hrs by Hoechst 33342 staining based analysis; assay type: functional, organism-based; conditions: NCI-H460
[5] = test system: Human coronavirus OC43; assay: Antiviral activity against HCoV-OC43 infected in human NCI-H460 cells treated for 72 hrs by CPE inhibition assay; assay type: functional, organism-based; conditions: Betacoronavirus 1, NCI-H460, 72 h
[6] = test system: Human coronavirus OC43; assay: Antiviral activity against HCoV-OC43 infected in human H460 cells assessed as decrease in viral nucleocapsid protein mRNA level by qRT-PCR analysis; assay type: functional, organism-based; conditions: NCI-H460, dose 0.1-10 µM
[7] = test system: Human coronavirus OC43; assay: Antiviral activity against HCoV-OC43 infected in human H460 cells assessed as viral inhibition at early stage at 10 uM measured upto 12 hrs by Hoechst 33342 staining based analysis; assay type: functional, organism-based; conditions: NCI-H460
[8] = test system: Human coronavirus OC43; assay: Antiviral activity against HCoV-OC43 infected in human H460 cells assessed as decrease in viral nucleocapsid protein level at 10 uM by Hoechst 33342 staining based analysis relative to control; assay type: functional, NCI-H460; set-up: scale not given: the % may be the effect or the level left
[9] = test system: Human coronavirus OC43; assay: Antiviral activity against HCoV-OC43 infected in human H460 cells assessed as decrease in viral nucleocapsid protein level by Hoechst 33342 staining based analysis; assay type: functional, organism-based; conditions: NCI-H460, dose 0.1-10 µM

SMILES | CC50 at 72 h [1] [µM] | selectivity ratio [2] | Activity [3] | inhibition [4] | EC50 [5] [µM] | Activity [6] | inhibition [7] | Activity [8] [%] | Activity [9]
CCC(CC)COC(=O)[C@H](C)N[P@](=O)(OC[C@H]1O[C@@](C#N)(c2ccc3c(N)ncnn23)[C@H](O)[C@@H]1O)Oc1ccccc1 [REMDESIVIR] | > 20 | > 143 | Active | Active | 0.14 | – | – | – | –
FC(F)(F)c1cc(Nc2ncnc3ccc(C(F)(F)F)cc23)cc(C(F)(F)F)c1 | 4.28 | 18.6 | – | – | 0.23 | – | – | – | –
COc1ccc2ncnc(Nc3cc(Cl)cc(C#N)c3)c2c1 | 240 | 24.1 | – | – | 9.98 | – | – | – | –
COC(=O)c1cc(Nc2ncnc3ccc(OC)cc23)cc(C(F)(F)F)c1 | 26.7 | 55.6 | – | – | 0.48 | – | – | – | –
CCOc1ccc2nc(NCC3CCCO3)nc(Nc3cc(C(F)(F)F)cc(C(F)(F)F)c3)c2c1 (stereo not given) | 96.2 | 1070 | – | – | 0.09 | Dose-Dependent Effect | Active | 100 | Dose-Dependent Effect
COc1ccc2ncnc(Nc3cc(F)cc(F)c3)c2c1 | 388 | 16.3 | – | – | 23.9 | – | – | – | –
FC(F)(F)c1cc(Nc2ncnc3ccc(Cl)cc23)cc(C(F)(F)F)c1 | 1.71 | 10.8 | – | – | 0.16 | – | – | – | –
COc1ccc2ncnc(Sc3cc(C(F)(F)F)cc(C(F)(F)F)c3)c2c1 | 96.2 | 96.2 | – | – | > 55.6 | – | – | – | –
CCOc1ccc2nc(NC(Cc3ccccc3)C(=O)OC(C)(C)C)nc(Nc3cc(C(F)(F)F)cc(C(F)(F)F)c3)c2c1 (stereo not given) | 38.5 | 2.1 | – | – | 18.5 | – | – | – | –
COc1ccc2ncnc(Nc3cc(F)cc(C#N)c3)c2c1 | 388 | 16.3 | – | – | 23.9 | – | – | – | –
Cc1ccc2ncnc(Nc3cc(C(F)(F)F)cc(C(F)(F)F)c3)c2c1 | 96.2 | 80.9 | – | – | 1.19 | – | – | – | –
COC(=O)c1cc(Nc2ncnc3ccc(OC)cc23)cc(C(=O)OC)c1 | 240 | 4.3 | – | – | 55.6 | – | – | – | –
CCCCNc1nc(Nc2cc(C(F)(F)F)cc(C(F)(F)F)c2)c2cc(OCC)ccc2n1 | 10.7 | 7.5 | – | – | 1.43 | – | – | – | –
FC(F)(F)c1cc(Nc2ncnc3ccccc23)cc(C(F)(F)F)c1 | 17.2 | 12.1 | – | – | 1.43 | – | – | – | –
FC(F)(F)c1cc(Nc2ncnc3ncccc23)cc(C(F)(F)F)c1 | 32.1 | 6.2 | – | – | 5.14 | – | – | – | –
O=[N+]([O-])c1ccc2ncnc(Nc3cc(C(F)(F)F)cc(C(F)(F)F)c3)c2c1 | 3.56 | 12.3 | – | – | 0.29 | – | – | – | –
CCOc1ccc2nc(NCc3ccco3)nc(Nc3cc(C(F)(F)F)cc(C(F)(F)F)c3)c2c1 | 10.7 | 9 | – | – | 1.19 | – | – | – | –
NC(=O)c1ncn([C@@H]2O[C@H](CO)[C@@H](O)[C@H]2O)n1 [RIBAVIRIN] | 409 | 5.2 | – | – | 78.8 | – | – | – | –
CCOc1ccc2nc(NCCN3CCN(C)CC3)nc(Nc3cc(C(F)(F)F)cc(C(F)(F)F)c3)c2c1 | 5.77 | 10.9 | – | – | 0.53 | – | – | – | –
CCOc1ccc2nc(NCCOC)nc(Nc3cc(C(F)(F)F)cc(C(F)(F)F)c3)c2c1 | 5.77 | 57.7 | – | – | 0.1 | Dose-Dependent Effect | – | 100 | Dose-Dependent Effect
FC(F)(F)c1cc(Nc2ncnc3ccc(Br)cc23)cc(C(F)(F)F)c1 | 2.47 | 7.1 | – | – | 0.35 | – | – | – | –
COc1ccc2ncnc(Nc3cc(Cl)cc(C(F)(F)F)c3)c2c1 | 129 | 90.4 | – | – | 1.43 | – | – | – | –
CCOc1ccc2nc(NCC(F)(F)F)nc(Nc3cc(C(F)(F)F)cc(C(F)(F)F)c3)c2c1 | 32.1 | 15.6 | – | – | 2.06 | – | – | – | –
CCOc1ccc2nc(NCC(=O)OC(C)(C)C)nc(Nc3cc(C(F)(F)F)cc(C(F)(F)F)c3)c2c1 | 18.5 | 5.2 | – | – | 3.56 | – | – | – | –
CCOc1ccc2ncnc(Nc3cc(C(F)(F)F)cc(C(F)(F)F)c3)c2c1 | 219 | 318 | – | – | 0.69 | – | – | – | –
CCOc1ccc2nc(NCCN3CCOCC3)nc(Nc3cc(C(F)(F)F)cc(C(F)(F)F)c3)c2c1 | 5.77 | 48.1 | – | – | 0.12 | Dose-Dependent Effect | – | 100 | Dose-Dependent Effect

SMILES | CC50 at 72 h [1] [µM] | selectivity ratio [2] | Activity [3] | inhibition [4] | EC50 [5] [µM] | Activity [6] | inhibition [7] | Activity [8] [%] | Activity [9]
COC(=O)c1cc(C#N)cc(Nc2ncnc3ccc(OC)cc23)c1 | > 500 | > 189 | – | – | 2.65 | – | – | – | –
COc1ccc2ncnc(Nc3ccc(F)c(Cl)c3)c2c1 | 12.8 | 3.6 | – | – | 3.56 | – | – | – | –
COc1ccc2ncnc(Oc3cc(C(F)(F)F)cc(C(F)(F)F)c3)c2c1 | 240 | 240 | – | – | > 55.6 | – | – | – | –
COc1ccc2ncnc(NNC(=O)c3cc(C(F)(F)F)cc(C(F)(F)F)c3)c2c1 | 289 | 289 | – | – | 1.71 | – | – | – | –
COc1ccc2ncnc(Nc3cc(F)cc(OC(F)(F)F)c3)c2c1 | 289 | 28.9 | – | – | 9.98 | – | – | – | –
CCCNc1nc(Nc2cc(C(F)(F)F)cc(C(F)(F)F)c2)c2cc(OCC)ccc2n1 | 6.17 | 9 | – | – | 0.69 | – | – | – | –
COc1ccc2ncnc(Nc3ccc(F)c(C(F)(F)F)c3)c2c1 | 26.7 | 18.7 | – | – | 1.43 | – | – | – | –
COc1ccc2ncnc(Nc3cc([N+](=O)[O-])cc(C(F)(F)F)c3)c2c1 | 96.2 | 140 | – | – | 0.69 | – | – | – | –
COC(=O)c1cc(Cl)cc(Nc2ncnc3ccc(OC)cc23)c1 | 129 | 90.4 | – | – | 1.43 | – | – | – | –
CCOc1ccc2nc(NC(C)C)nc(Nc3cc(C(F)(F)F)cc(C(F)(F)F)c3)c2c1 | 8.9 | 6.2 | – | – | 1.43 | – | – | – | –
Fc1cc(Nc2ncnc3ccc(Cl)cc23)cc(C(F)(F)F)c1 | 5.14 | 2.08 | – | – | 2.47 | – | – | – | –
CCOc1ccc2nc(N3CCN(C)CC3)nc(Nc3cc(C(F)(F)F)cc(C(F)(F)F)c3)c2c1 | 10.7 | 22.3 | – | – | 0.48 | – | – | – | –
Nc1ccc2ncnc(Nc3cc(C(F)(F)F)cc(C(F)(F)F)c3)c2c1 | 10.7 | 22.3 | – | – | 0.48 | – | – | – | –
COc1cc2c(Nc3cc(C(F)(F)F)cc(C(F)(F)F)c3)ncnc2cn1 | 6.93 | 24.8 | – | – | 0.28 | – | – | – | –
CCOc1ccc2nc(NCc3cccs3)nc(Nc3cc(C(F)(F)F)cc(C(F)(F)F)c3)c2c1 | 10.7 | 3.6 | – | – | 2.97 | – | – | – | –
FC(F)(F)c1cc(Nc2ncnc3cc(Cl)ccc23)cc(C(F)(F)F)c1 | 1.43 | 3 | – | – | 0.47 | – | – | – | –
CCCOc1ccc2ncnc(Nc3cc(C(F)(F)F)cc(C(F)(F)F)c3)c2c1 | 388 | 1050 | – | – | 0.37 | – | – | – | –
FC(F)(F)c1cc(Nc2ncnc3cnc(Cl)cc23)cc(C(F)(F)F)c1 | 1.71 | 11.4 | – | – | 0.15 | – | – | – | –
CC(C)Oc1ccc2ncnc(Nc3cc(C(F)(F)F)cc(C(F)(F)F)c3)c2c1 | 388 | 9 | – | – | 43.1 | – | – | – | –
FC(F)(F)c1cc(Nc2ncnc3ccc(I)cc23)cc(C(F)(F)F)c1 | 7.95 | 16.6 | – | – | 0.48 | – | – | – | –
FC(F)(F)c1cc(Nc2ncnc3cccnc23)cc(C(F)(F)F)c1 | 240 | 7.5 | – | – | 32.1 | – | – | – | –
COc1ccc2ncnc(Nc3cc(C#N)cc(C(F)(F)F)c3)c2c1 | 240 | 501 | – | – | 0.48 | – | – | – | –
CCOc1ccc2nc(N3CCC(F)(F)CC3)nc(Nc3cc(C(F)(F)F)cc(C(F)(F)F)c3)c2c1 | 12.8 | 2.1 | – | – | 6.17 | – | – | – | –
O=[N+]([O-])c1cccc(Nc2ncnc3ccc(Cl)cc23)c1 | 51.7 | 12.1 | – | – | 4.28 | – | – | – | –
COc1ccc2ncnc(Nc3cccc(C(F)(F)F)c3)c2c1 | 10.7 | 2.5 | – | – | 4.28 | – | – | – | –
